Experimental data reported in ChEMBL document CHEMBL1148361, “Total synthesis and anti-tubulin activity of epi-c3 analogues of cryptophycin-24” (J Med Chem, 2004).

Columns and labels:
NCI/ADR-RES = assay: In vitro inhibitory activity of compound against induced cytotoxicity in multidrug-resistant MCF-7/ADR breast cancer cell line; format: functional, cell-based, Homo sapiens
[1] = Resistance factor was expressed as the IC50 of resistance cell line / IC50 of sensitive cell line; format: functional
[2] = In vitro inhibitory activity of compound against microtubule polymerization in a tubulin assembly assay; format: functional
MCF7 = assay: In vitro inhibitory activity of compound against induced cytotoxicity in MCF-7 cell line; format: functional, cell-based, Homo sapiens

| SMILES | IC50 (NCI/ADR-RES; Homo sapiens, NCI/ADR-RES) [nM] | Resistance factor [1] | IC50 [2] [nM] | IC50 (MCF7; Homo sapiens, MCF7) [nM] | IC50 (NCI/ADR-RES; nci/adr-res) [nM] | IC50 (MCF7; mcf7) [nM] |
| --- | --- | --- | --- | --- | --- | --- |
| COc1ccc(C[C@H]2NC(=O)/C=C/CC(C(C)C3OC3c3ccccc3)OC(=O)[C@@H](CC(C)C)OC(=O)CCNC2=O)cc1Cl (single isomer, unassigned) | 0.92 | 3.3 | 10600 | 0.28 | – | – |
| COc1ccc(C[C@H]2NC(=O)/C=C/C[C@@H](C(C)[C@H]3O[C@@H]3c3ccccc3)OC(=O)[C@H](CC(C)C)OC(=O)CCNC2=O)cc1 (single isomer, unassigned) [ARENASTATIN A] | – | 1.9 | 15800 | 0.13 | 250 | – |
| COc1ccc(C[C@H]2NC(=O)/C=C/C[C@@H]([C@H](C)/C=C/c3ccccc3)OC(=O)[C@@H](CC(C)C)OC(=O)CCNC2=O)cc1 | > 25 | – | > 100000 | > 25 | – | – |
| COc1ccc(C[C@H]2NC(=O)/C=C/C[C@@H](C(C)[C@H]3O[C@@H]3c3ccccc3)OC(=O)C(CC(C)C)OC(=O)CCNC2=O)cc1 (single isomer, unassigned) [ARENASTATIN A] | – | 27.3 | 13700 | – | 2400 | 88 |
| COc1ccc(C[C@H]2NC(=O)/C=C/C[C@@H]([C@H](C)/C=C/c3ccccc3)OC(=O)[C@@H](CC(C)C)OC(=O)CCNC2=O)cc1Cl | > 25 | – | > 100000 | > 25 | – | – |
| COc1ccc(C[C@H]2NC(=O)/C=C/C[C@@H]([C@H](C)[C@H]3O[C@@H]3c3ccccc3)OC(=O)[C@H](CC(C)C)OC(=O)[C@H](C)CNC2=O)cc1Cl [CRYPTOPHYCIN A] | 0.018 | 2 | 3400 | 0.009 | – | – |
